“And” between values parts separate entries of the source, which are not always exact repeats. Equal values may be shown once. Results filed as inconclusive are left out. The source made the active and inactive calls. How the calls were made is not given here.
Target: Protein AF-9 (Homo sapiens) (UniProt P42568)
Assay: AF9 binding to AF4 blockers, potency – biochemical, cherry-picked samples, plate reader, dose response (AID 720495)
Settings: biochemical protein-protein interaction assay

Sequence of Protein AF-9 (Homo sapiens) (P42568 whole entry, looked up): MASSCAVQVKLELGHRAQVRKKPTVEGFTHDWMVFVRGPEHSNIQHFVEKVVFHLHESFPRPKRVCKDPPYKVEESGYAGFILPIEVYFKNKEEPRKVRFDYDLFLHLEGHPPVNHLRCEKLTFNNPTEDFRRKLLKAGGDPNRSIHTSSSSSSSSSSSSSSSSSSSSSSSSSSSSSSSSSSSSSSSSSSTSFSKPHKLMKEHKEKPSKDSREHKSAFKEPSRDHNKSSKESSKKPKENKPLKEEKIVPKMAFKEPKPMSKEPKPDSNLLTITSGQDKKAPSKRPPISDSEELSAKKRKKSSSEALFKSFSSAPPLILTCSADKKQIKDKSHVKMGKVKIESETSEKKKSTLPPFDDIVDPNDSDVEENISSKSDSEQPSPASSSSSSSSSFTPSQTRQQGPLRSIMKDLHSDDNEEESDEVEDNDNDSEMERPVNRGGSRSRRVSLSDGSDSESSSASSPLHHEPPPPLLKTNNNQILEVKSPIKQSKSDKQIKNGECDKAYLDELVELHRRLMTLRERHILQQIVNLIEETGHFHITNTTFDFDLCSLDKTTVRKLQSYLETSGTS

SMILES | AC50
CCc1cccc(NC(=O)CCCCCC2NC(=O)NC2C)c1 (centres undefined) | < 0.08 µM
Oc1c(C(Nc2cccc(C(F)(F)F)c2)c2ccncc2)ccc2cccnc12 (centres undefined) | 0.515 µM
CN(C)c1ccc(N=C/C=C2/N(C)c3ccccc3C2(C)C)cc1 | 7.5 µM
O=C(CN1CCCC1)N/N=C/c1c(O)ccc2ccccc12 | 0.249 µM
CCCCCc1cc(=O)oc2c(C(CCN3CCCC3)c3ccc(N(C)C)cc3)c(OC)cc(OC)c12 (centres undefined) | 2.31 µM
CN(C)c1cccc2c(C=C(C#N)C#N)ccc(N(C)C)c12 | 1.04 µM
N=C1C=CC(=C(c2ccc(N)cc2)c2ccc(N)cc2)C=C1 | 6.08 µM
COc1ccc(C(CCNCc2ccc(N(C)C)cc2)c2ccccc2OC)cc1 (centres undefined) | 6.09 µM
CN(C)c1ccc(C=c2c3ccccc3n3c2c2ccccc2[n+]3C)cc1 | 1.65 µM
O=C(Nc1ccc(N2CCCCCC2)cc1)c1ccc[nH]1 | 5.21 µM
CN(C)CCNC(=O)c1cccc(-c2cnc3c(NC=O)cc(/C=C/c4ccccc4)cn23)c1 | 0.523 µM
Cc1[nH]c2ccc(O)cc2c1CCN | 5.35 µM
Cc1ncc(CO)c(/C=N/NC(=S)Nc2ccc(Cl)c(Cl)c2)c1O | 5.79 µM
COc1ccc(C#Cc2ccc3c(c2)[C@H]2[C@H](CCN2C(=O)c2ccncc2)[C@@H](CO)N3)cc1 | 10.7 µM
NC(N)=NCCCS(=O)(=O)Nc1ccc(Nc2c3ccccc3nc3cc([N+](=O)[O-])ccc23)cc1 | 2.85 µM
O=C(COc1cc(F)ccc1[N+](=O)[O-])Nc1ccc(N2CCCCC2)cc1 | 9.04 µM
C#CCOCCOCCOCCNc1nc(N2CCN(C(=O)[C@H](CCCCN)n3cc([C@@H](N)CC(N)=O)nn3)CC2)nc(N2CCN(C(=O)[C@H](CCCCN)n3cc([C@@H](N)CC(N)=O)nn3)CC2)n1 | 6.87 µM
CCN(CC)c1ccc(CNc2nc3ccccc3n2CCN2CCCCC2)cc1 | 5.83 µM
COc1cccc2sc(N(CCCN(C)C)C(=O)c3ccc(S(=O)(=O)N4CCCc5ccccc54)cc3)nc12 | 4.68 µM
O=c1[nH]c2ccccc2n1C1CCN(C(c2nnnn2C2CCCCC2)C2CC2)CC1 (centres undefined) | 11.1 µM
CC1(C)CNc2cc(N)ccc2S1 | 2.52 µM
COc1ccccc1C(CCNCc1ccc(N(C)C)cc1)c1ccc(OC(C)C)cc1 (centres undefined) | 3.3 µM
CN[C@H]1C[C@H]2c3[nH]c4ccc(-c5cccc(C)c5)cc4c3CCN2C[C@H]1[C@H](C)O | 6.97 µM

SMILES | AC50
CCc1nc2ccc(C(=O)NC3CCN(Cc4ccccc4)CC3)cn2c1N(C)Cc1ccc(N(C)C)cc1 | 5.52 µM
CN1CCN(C(c2ccc(Br)cc2)c2cc(Cl)c3cccnc3c2O)CC1 (centres undefined) | 1.47 µM
O=C1c2ccccc2NC(c2cccc([N+](=O)[O-])c2)N1O (centres undefined) | 11.2 µM
CCN(CCCNc1cc2c(c(N)c1S(=O)(=O)O)C(=O)c1ccccc1C2=O)c1ccccc1 | 3.65 µM
NC(N)=N/N=C/c1cn(-c2ccccc2)nc1-c1cccs1 | 3.92 µM
CC(C)Nc1ccc(Nc2ccccc2)cc1 | 10.9 µM
COc1ccc(C2CC(=O)Oc3c(C(CCN4CCCC(C)C4)c4ccc(N(C)C)cc4)c(OC)cc(OC)c32)cc1 (centres undefined) | 0.68 µM
CC[n+]1c(/C=C/c2ccc(N(C)C)cc2)ccc2ccccc21 | 8.28 µM
CCN(CC)CCOc1ccc(/C(=C(/Cl)c2ccccc2)c2ccccc2)cc1 | 0.529 µM
COc1cc(Nc2c3ccccc3nc3ccccc23)cc(OC)c1OC | 0.234 µM
COc1ccccc1C#Cc1ccc2c(c1)[C@H]1[C@H](CCN1C(=O)c1ccncc1)[C@@H](CO)N2 | 7.63 µM
CCN1/C(=C/C(C)=C/c2sc3ccccc3[n+]2CC)Sc2ccccc21 | 5.6 µM
CCN1CCN(c2ccc(N)cc2C)CC1 | 6.46 µM
CC(C)(c1ccccc1)c1ccc(OCC(O)CNC2CCN(Cc3ccccc3)CC2)cc1 (centres undefined) | 0.841 µM
Oc1cc(NCCN2CCOCC2)cc2cccnc12 | 7.86 µM
CCOC(=O)c1c(-c2ccc(-c3ccccc3)cc2)csc1NC(=O)CNCCN(C)C | 5.86 µM
CCN(CCCl)c1cc(CN(C)C)cc(NC(=O)c2ccc(C(=O)Nc3cc(CN(C)C)cc(N(CC)CCCl)c3)cc2)c1 | 0.683 µM
COc1cc(OC)c2c(-c3ccccc3)cc(=O)oc2c1C(CCN1CCCCC1)c1ccc2c(c1)OCO2 (centres undefined) | 1.08 µM
Cc1ccc2nc(-c3ccc(NC(=S)NC4CC(C)(C)NC(C)(C)C4)cc3)sc2c1 | 7.34 µM
Cc1[nH]c2ccccc2c1N=Nc1ccccc1F | 10.2 µM
CCN(CC)c1ccc(/C=C/c2ccc3ccc(OC)cc3[n+]2CC)cc1 | 2.36 µM
COc1cc(N(C)C)ccc1C=c1c2ccccc2n2c1cc(-c1ccccc1)[n+]2C | 1.88 µM
O=C1c2c(O)ccc(O)c2C(=O)c2c(NCCNCCO)ccc(NCCNCCO)c21 | 0.15 µM and 0.374 µM

Same assay, conditions: biochemical protein-protein interaction assay, at 10 µM (top of the series)

SMILES | activity change, negative = inhibition
CN(C)CCCN1c2ccccc2Sc2ccc(Cl)cc21 | inactive
C[C@@H]1CN([C@@H](C)CO)C(=O)Cc2cc(N(C)C)ccc2O[C@H]1CN(C)Cc1ccc(Cl)c(Cl)c1 | inactive
Oc1c(C(c2ccc(Cl)cc2)N2CCCC2)cc(Cl)c2cccnc12 (centres undefined) | inactive
CCc1ccc(-c2nc(CSCC(=O)N3CCN(c4ncccn4)CC3)c(C)o2)cc1 | inactive
O=C(NC1CCCCC1)C(c1cccs1)N(CCCN1CCOCC1)C(=O)c1ccc(-c2ccccc2)[nH]1 (centres undefined) | inactive
CCc1ccc(OCCNc2cc(N3CCNC(C)C3)ccc2[N+](=O)[O-])cc1 (centres undefined) | inactive
O=C(C[C@H]1CC[C@@H]2[C@H](COC[C@@H](O)CN2S(=O)(=O)c2ccc(F)cc2)O1)NCC1CCCCC1 | inactive
CCOC(=O)C1CCCN(C2=C(NS(=O)(=O)c3ccc(Br)cc3)C(=O)c3ccccc3C2=O)C1 (centres undefined) | inactive
CCN(CC)c1ccc(N=Cc2cc(Br)ccc2O)cc1 | inactive
Cn1ccc2c(N3CCCCCC3)cc3c(c21)C1CCC3C1 (centres undefined) | inactive
Cc1cc(/C=N/n2c(COc3ccccc3C)nc3ccccc3c2=O)c(O)c([N+](=O)[O-])c1 | inactive
O=c1c2ccccc2nc(/C=C/c2cccnc2)n1Cc1ccccc1 | inactive
O=C1CN=C(c2ccc(Br)cc2)c2c(sc3c2CCCC3)N1CCN1CCCCC1 | inactive
O=C(NCCCN1CCCC1=O)C1CCN(S(=O)(=O)c2cccc(C(F)(F)F)c2)CC1 | inactive
COc1cc(O)c(C(CCN2CCN(c3ccccc3)CC2)c2ccc(N(C)C)cc2)c(OC)c1 (centres undefined) | inactive
C(=C\c1ccc2ccccc2n1)/c1ccccc1 | inactive
CCOc1ccc(OCCSc2ccc(S(=O)(=O)N3CCN(C)CC3)cn2)cc1 | inactive
CC(=O)c1ccc(OCC(=O)Nc2ccc(N3CCCCC3)cc2)cc1 | inactive
COc1ccccc1N1CCN(/N=C/C=C\c2ccccc2[N+](=O)[O-])CC1 | inactive
CNC(=S)N1N=C(c2ccc(C)cc2)CC1c1ccc(N(C)C)cc1 (centres undefined) | inactive
Cc1cc2c(OCC(O)CNC3CCCCC3)cccc2[nH]1 (centres undefined) | inactive
COc1ccc(N2CCC(CNC(=S)Nc3ccc(C)cc3C)C2)cc1 (centres undefined) | inactive
CCCCOc1ccc2c(c1)C(=O)c1cc(O)ccc1-2 | inactive
CC(=Nc1ccc(C)cc1C)c1sc2ccccc2c1O | inactive

SMILES | activity change, negative = inhibition
COc1ccc(CN2CCC(N(CCc3ccccc3)Cc3ccccc3)CC2)c(OC)c1 | inactive
Fc1ccc([C@@H]2CCNC[C@H]2COc2ccc3c(c2)OCO3)cc1 | inactive
C#CCOCCOCCOCCNc1nc(N2CCN(C(=O)C([C@@H](C)O)n3cc([C@@H](N)CCCCN)nn3)CC2)nc(N2CCN(C(=O)C([C@@H](C)O)n3cc([C@@H](N)CCCCN)nn3)CC2)n1 (some centres undefined) | inactive
Cc1ccc(S(=O)(=O)NC(=O)Nc2ccc(N(C)C)cc2)cc1 | inactive
COc1cccc(-c2ccc3c(c2)[C@H]2[C@H](CCN2C(=O)C2CCCCC2)[C@@H](CO)N3)c1 | inactive
COc1ccc(-n2cc(CNCCc3cnc[nH]3)c(-c3cccc(F)c3)n2)cc1 | inactive
CN(C)c1ccc(NC2=C(Cl)C(=O)c3ccccc3C2=O)cc1 | inactive
COc1ccc(OC)c(NC2=C(Cl)C(=O)N(Cc3ccccc3)C2=O)c1 | inactive
CC(=O)Nc1ccc(S(=O)(=O)NC2=C(N3CCN(Cc4ccccc4)CC3)C(=O)c3ccccc3C2=O)cc1 | inactive
COCCCNCC(O)COc1cccc2[nH]c(C)cc12 (centres undefined) | inactive
Cn1cc(C(=O)N/N=C/c2c(O)ccc3ccccc23)ccc1=O | inactive
Nc1ccc(N)c(C(=O)O)c1 | inactive
COc1ccc(N2CCN(c3cc(C)nc4ccc(OC)cc34)CC2)cc1 | inactive
C[C@@H]1CN([C@H](C)CO)C(=O)c2c(c3ccccc3n2C)-c2ccccc2CO[C@@H]1CN(C)Cc1ccc2c(c1)OCCN2C | inactive
Fc1ccc(C(c2ccc(F)cc2)N2CCN(C/C=C/c3ccccc3)CC2)cc1 | inactive
Cc1cc(N=Nc2ccc(Cl)cc2)cc(CN2CCCC2)c1O | inactive
COc1ccccc1N1CCN(/N=C\c2sccc2C)CC1 | inactive
COc1ccc(-c2oc3ccccc3c(=O)c2OC(C)=O)cc1 | inactive
CCCCCN=C(N)N/N=C/c1c[nH]c2ccc(OC)cc12 | inactive
CC(C)N1CCN(c2ccc(OC[C@H]3CO[C@](Cn4cncn4)(c4ccc(Cl)cc4Cl)O3)cc2)CC1 | inactive
COc1ccc(CCNCc2cc(C)n(-c3ccc(OC)cc3)c2C)cc1 | inactive
CC1Cc2ccccc2N1C(=O)c1ccc(N2CCCC2)c([N+](=O)[O-])c1 (centres undefined) | inactive
O=[N+]([O-])c1cc(/C=N/Nc2nc3ccccc3[nH]2)c(O)cc1O | inactive
Cc1ccc2ccc(C(Nc3cccc(C(F)(F)F)c3)c3cccnc3)c(O)c2n1 (centres undefined) | inactive

— PubChem BioAssay AID720495 (Broad Institute, 2013)
